Data as given in ChEMBL document CHEMBL5046256, “The discovery of potent small molecule cyclic urea activators of STING” (Eur J Med Chem, 2022).
Activity calls are given as the source filed them. The rule behind the calls is not given here.

What was measured:
[1] = Agonist activity against human STING R232H variant transfected in HEK-293T cells co-expressing ISRE.ISG54 by luciferase reporter gene assay; assay type: cell-based
HEK-293T = assay: Agonist activity against human STING R232H variant transfected in HEK-293T cells co-expressing ISRE.ISG54 at 5 uM by luciferase reporter gene assay relative to control; assay type: cell-based

| EC50 ([1]; Homo sapiens, HEK-293T) [nM] | SMILES | further results |
| --- | --- | --- |
| 450 | CN1Cc2ccc(C(=O)NCc3ccc(F)cc3F)cc2N(Cc2cc(F)cc(F)c2)C1=O | – |
| – | O=C(NCc1c(F)cc(F)cc1F)c1ccc2c(c1)N(Cc1cc(F)cc(F)c1)C(=O)N(C1CC1)C2 | Activity (HEK-293T): 13% |
| 157 | CC1c2ccc(C(=O)NCc3c(F)cc(F)cc3F)cc2N(Cc2c(F)cc(Cl)cc2F)C(=O)N1C (configuration not stated) | – |
| 3340 | CN1Cc2ccc(C(=O)NCc3c(F)cc(F)cc3F)cc2N(Cc2ccncc2)C1=O | – |
| – | CN1Cc2ccc(C(=O)NCc3cccc(-n4cccn4)c3)cc2N(Cc2c(F)cccc2Cl)C1=O | Activity (HEK-293T): inactive |
| 1710 | Cc1ncc(CN2C(=O)N(C)Cc3ccc(C(=O)NCc4c(F)cc(F)cc4F)cc32)s1 | – |
| – | CC1c2ccc(C(=O)NCc3c(F)cc(F)cc3F)cc2N(Cc2ccc(F)cc2Cl)C(=O)N1C (configuration not stated) | Activity (HEK-293T): 25% |
| 388 | CC1c2ccc(C(=O)NCc3c(F)cc(F)cc3F)cc2N(Cc2ccncc2F)C(=O)N1C (configuration not stated) | – |
| – | CN1Cc2ccc(CNCc3c(F)cc(F)cc3F)cc2N(Cc2c(F)cccc2Cl)C1=O | Activity (HEK-293T): 3% |
| – | CN1Cc2ccc(C(=O)NCc3ccc4c(c3)CC(=O)N4)cc2N(Cc2c(F)cccc2Cl)C1=O | Activity (HEK-293T): 2% |
| 204 | CN1Cc2ccc(C(=O)NCc3c(F)cc(F)cc3F)cc2N(Cc2ccc(F)cc2F)C1=O | – |
| – | Cc1cc(CN2C(=O)N(C)C(C)c3ccc(C(=O)NCc4c(F)cc(F)cc4F)cc32)ccn1 (stereo in doubt; 74) | EC50 ([1]; hek-293t): 816 nM |
| 47 | Cc1nccc(CN2C(=O)N(C)[C@@H](C)c3ccc(C(=O)NCc4c(F)cc(F)cc4F)cc32)c1F | – |
| – | CN1Cc2ccc(C(=O)NCc3cccc(C(=O)N4CCCC4)c3)cc2N(Cc2c(F)cccc2Cl)C1=O | Activity (HEK-293T): inactive |
| – | CC1c2ccc(C(=O)NCc3c(F)cc(F)cc3F)cc2N(Cc2c(F)cccc2F)C(=O)N1C (stereo in doubt; 72) | EC50 ([1]; hek-293t): 51 nM |
| – | CN1Cc2ccc(C(=O)NCc3c(F)cc(F)cc3F)cc2N(Cc2ccccc2Cl)C1=O | Activity (HEK-293T; filed as agonist): 76% |
| – | CN1Cc2ccc(C(=O)NCc3cccc4c3OCO4)cc2N(Cc2c(F)cccc2Cl)C1=O | Activity (HEK-293T): 4% |
| – | CC1c2ccc(C(=O)NCc3c(F)cc(F)cc3F)cc2N(Cc2cc(F)cc(F)c2)C(=O)N1C (racemic) | EC50 ([1]; hek-293t): 470 nM |
| – | CN1Cc2ccc(C(=O)NCc3cccc(N4CCOCC4)c3)cc2N(Cc2c(F)cccc2Cl)C1=O | Activity (HEK-293T): inactive |
| – | CC1c2ccc(C(=O)NCc3c(F)cc(F)cc3F)cc2N(Cc2ccccc2F)C(=O)N1C (stereo in doubt; 98) | EC50 ([1]; hek-293t): 122 nM |
| 38 | Cc1ccc(Cl)c(CN2C(=O)N(C)[C@@H](C)c3ccc(C(=O)NCc4c(F)cc(F)cc4F)cc32)c1F | – |

| EC50 ([1]; Homo sapiens, HEK-293T) [nM] | SMILES | further results |
| --- | --- | --- |
| 2600 | C[C@@H]1c2ccc(C(=O)NCc3c(F)cc(F)cc3F)cc2N(Cc2c(F)cccc2Cl)C(=O)N1C | – |
| 980 | CN1Cc2ccc(C(=O)NCc3c(F)cc(F)cc3F)cc2N(Cc2ccccc2)C1=O | – |
| – | CN1Cc2ccc(C(=O)NCc3ccc4cnn(C)c4c3)cc2N(Cc2c(F)cccc2Cl)C1=O | Activity (HEK-293T): inactive |
| – | CN1Cc2ccc(C(=O)NCc3ccc4ccoc4c3)cc2N(Cc2c(F)cccc2Cl)C1=O | Activity (HEK-293T; filed as agonist): 84% |
| – | CC1c2ccc(C(=O)NCc3c(F)cc(F)cc3F)cc2N(Cc2cc(F)cc(F)c2)C(=O)N1C (stereo in doubt; 68) | EC50 ([1]; hek-293t): 117 nM |
| 153 | CC1c2ccc(C(=O)NCc3c(F)cc(F)cc3F)cc2N(Cc2ccccc2F)C(=O)N1C (racemic) | – |
| 200 | CC1c2ccc(C(=O)NCc3c(F)cc(F)cc3F)cc2N(Cc2ccc(F)cc2)C(=O)N1C (configuration not stated) | – |
| 1760 | C[C@H]1c2ccc(C(=O)NCc3c(F)cc(F)cc3F)cc2N(Cc2c(Cl)cn(C)c(=O)c2F)C(=O)N1C | – |
| – | CN1Cc2ccc(C(=O)NCc3ccc4c(c3)NCCO4)cc2N(Cc2c(F)cccc2Cl)C1=O | Activity (HEK-293T): inactive |
| – | CN1Cc2ccc(C(=O)NCc3c(F)cc(F)cc3F)cc2N(Cc2cccc(C(N)=O)c2)C1=O | Activity (HEK-293T; filed as agonist): 57% |
| – | Cc1cc(CN2C(=O)N(C)Cc3ccc(C(=O)NCc4c(F)cc(F)cc4F)cc32)no1 | Activity (HEK-293T; filed as agonist): 68% |
| – | CN1Cc2ccc(C(=O)NCc3ccc4occc4c3)cc2N(Cc2c(F)cccc2Cl)C1=O | Activity (HEK-293T; filed as agonist): 70% |
| 135 | Cc1ccc(CN2C(=O)N(C)[C@@H](C)c3ccc(C(=O)NCc4c(F)cc(F)cc4F)cc32)c(F)c1 | – |
| 196 | CN1Cc2ccc(C(=O)NCc3c(F)cc(F)cc3F)cc2N(Cc2ccc(F)cc2)C1=O | – |
| 1040 | C[C@H]1c2ccc(C(=O)NCc3c(F)cc(F)cc3F)cc2N(Cc2ncccc2F)C(=O)N1C | – |
| – | CC1c2ccc(C(=O)NCc3c(F)cc(F)cc3F)cc2N(Cc2c(F)cccc2F)C(=O)N1C (racemic) | EC50 ([1]; hek-293t): 21 nM |
| 2340 | O=C(NCc1c(F)cc(F)cc1F)c1ccc2c(c1)N(Cc1cc(F)cc(F)c1)C(=O)NC2 | – |
| – | CN1Cc2ccc(C(=O)NCc3ccc(N4CCCC4=O)cc3)cc2N(Cc2c(F)cccc2Cl)C1=O | Activity (HEK-293T): inactive |
| 369 | Cc1cccc(CN2C(=O)N(C)Cc3ccc(C(=O)NCc4c(F)cc(F)cc4F)cc32)c1F | – |
| 36 | C[C@H]1c2ccc(C(=O)NCc3c(F)cc(F)cc3F)cc2N(Cc2c(F)ccc(F)c2Cl)C(=O)N1C | – |
| 91 | Cc1cccc(CN2C(=O)N(C)C(C)c3ccc(C(=O)NCc4c(F)cc(F)cc4F)cc32)c1F (configuration not stated) | – |

| EC50 ([1]; Homo sapiens, HEK-293T) [nM] | SMILES | further results |
| --- | --- | --- |
| – | CN1Cc2ccc(C(=O)NCc3cccc(-n4cncn4)c3)cc2N(Cc2c(F)cccc2Cl)C1=O | Activity (HEK-293T): inactive |
| – | CN1Cc2ncc(C(=O)NCc3c(F)cc(F)cc3F)cc2N(Cc2c(F)cccc2Cl)C1=O | Activity (HEK-293T; filed as agonist): 76% |
| – | CON1Cc2ccc(C(=O)NCc3c(F)cc(F)cc3F)cc2N(Cc2c(F)cccc2Cl)C1=O | Activity (HEK-293T; filed as agonist): 82% |
| 274 | CN1Cc2ccc(C(=O)NCc3c(F)cc(F)cc3F)cc2N(Cc2cc(F)cc(F)c2)C1=O | – |
| 47 | Cc1cccc(CN2C(=O)N(C)[C@@H](C)c3ccc(C(=O)NCc4c(F)cc(F)cc4F)cc32)c1F | – |
| – | Cc1cc(CN2C(=O)N(C)C(C)c3ccc(C(=O)NCc4c(F)cc(F)cc4F)cc32)ccn1 (racemic) | EC50 ([1]; hek-293t): 247 nM |
| 191 | CN1Cc2ccc(C(=O)NCc3c(F)cc(F)cc3F)cc2N(Cc2ccccc2F)C1=O | – |
| 41 | Cc1cccc(F)c1CN1C(=O)N(C)C(C)c2ccc(C(=O)NCc3c(F)cc(F)cc3F)cc21 (configuration not stated) | – |
| 134 | Cc1nccc(CN2C(=O)N(C)C(C)c3ccc(C(=O)NCc4c(F)cc(F)cc4F)cc32)c1F (configuration not stated) | – |
| 60 | Cc1ccc(Cl)c(CN2C(=O)N(C)C(C)c3ccc(C(=O)NCc4c(F)cc(F)cc4F)cc32)c1F (configuration not stated) | – |
| 39 | Cc1ncc(Cl)c(CN2C(=O)N(C)C(C)c3ccc(C(=O)NCc4c(F)cc(F)cc4F)cc32)c1F (configuration not stated) | – |
| 169 | C[C@H]1c2ccc(C(=O)NCc3c(F)cc(F)cc3F)cc2N(Cc2c(F)cncc2F)C(=O)N1C | – |
| 2260 | CN1Cc2ccc(C(=O)NCc3cc4ccccc4o3)cc2N(Cc2cc(F)cc(F)c2)C1=O | – |
| 181 | CC1c2ccc(C(=O)NCc3c(F)cc(F)cc3F)cc2N(Cc2c(F)cccc2C(F)(F)F)C(=O)N1C (configuration not stated) | – |
| 317 | Cc1cccc(F)c1CN1C(=O)N(C)Cc2ccc(C(=O)NCc3c(F)cc(F)cc3F)cc21 | – |
| 133 | CN1Cc2ccc(C(=O)NCc3c(F)cc(F)cc3F)cc2N(Cc2c(F)cccc2Cl)C1=O | – |
| 37 | Cc1ncc(Cl)c(CN2C(=O)N(C)[C@@H](C)c3ccc(C(=O)NCc4c(F)cc(F)cc4F)cc32)c1F | – |
| 29 | CC1c2ccc(C(=O)NCc3c(F)cc(F)cc3F)cc2N(Cc2c(F)cccc2Cl)C(=O)N1C (configuration not stated) | – |
| 248 | COc1cccc(F)c1CN1C(=O)N(C)Cc2ccc(C(=O)NCc3c(F)cc(F)cc3F)cc21 | – |
| 270 | CC1c2ccc(C(=O)NCc3c(F)cc(F)cc3F)cc2N(Cc2ccccc2)C(=O)N1C (configuration not stated) | – |
